The test system of assay [1] is Candida albicans biofilms. Briefly: Candida biofilm XTT reduction assay. In kind it is cell-based. To be noted: 24 hours, FIG. 6. As to the method:
Compound activity against C. albicans biofilm was assessed using a 96-well plate format as previously described by Nett et al. (15). Briefly, the C. albicans inoculum was prepared by diluting an overnight culture grown at 37° C. in RPMI-MOPS to 1×10^6 in RPMI-MOPS based on hemocytometer counts. An aliquot of 100 μl of the inoculum was added to each well of a 96-well flat-bottom polystyrene plate. After a 6-h incubation at 37° C., the wells were washed with phosphate-buffered saline (PBS) three times to remove any non-adherent cells. Fresh medium and fluconazole (Sigma), compound 13, and compound 33 were added and the plates were incubated at 37° C. for 24 hours. The XTT reduction assay was used to quantify the viability of biofilm cell as previously described (11). Briefly, 90 μl of (2,3)-bis-(2-Methoxy-4-Nitro-5-Sulphenyl)-(2H)-Tetrazolium-5-Carboxanilide (XTT; 1 mg/ml) (Sigma) and 10 μl phenazine methosulfate (320 μg/ml) (Sigma) were added to each well, and the plate was incubated for 2 h at 37° C. Cell viability was determined by measuring the absorbance at 490 nm using an automated plate reader. The biofilm growth assay was performed in duplicate.
Background: Formazan colour is commonly taken as a measure of viable cells.

Another assay relates to Candida albicans biofilm. Briefly: In vitro biofilm drug synergy (checkerboard, XTT). Format: cell-based. To be noted: alone and in combination. As to the method: Candida biofilms were formed in 96-well flat-bottom polystyrene plates (Fischer) as described previously ([…], Crawford K, Andes D R. Optimizing a Candida Biofilm Microtiter Plate Model for Measurement of Antifungal Susceptibility by XTT Assay. J. Clin. Microbiol. 2011 Jan., 2). Cells from an overnight culture grown in YPD shaking at 37° C. were enumerated by hemocytometer and suspended in RPMI-MOPS (Fisher) at a concentration of 10^6 cells/ml. A 100 μl of inoculum was added to each well of the plate. After 6 h incubation at 37° C., biofilms were gently washed twice with phosphate-buffered saline (PBS) to remove unattached cells. […] The ranges of concentrations of the fluconazole used included the standard doses given to humans. After overnight incubation at 37° C., biofilms were washed twice with PBS. Measurement of biofilm cell metabolic activity using the XTT reduction assay was performed as previously described ([…], Crawford K, Andes D R. Optimizing a Candida Biofilm Microtiter Plate Model for Measurement of Antifungal Susceptibility by XTT Assay. J. Clin. Microbiol. 2011 January, […], and Andes D. Synergistic Effect of Calcineurin Inhibitors and Fluconazole against Candida albicans Biofilms. Antimicrob Agents Chemother. 2008 March; 52(3): 1127-1132). Briefly, 90 μl of XTT at 1 mg/ml (Sigma) and 10 μl phenazine methosulfate at 320 μg/ml (Sigma) were added to each well, and the plate was incubated at 37° C. for 2 h. Viable cell number was assessed using the Absorbance at 492nm measured using an automated plate reader. Assays were performed in duplicate. The drug concentration resulting in a 25% reduction in optical density compared to the no-drug control wells was determined (EC25).

The record followed here is patent publication US9896442B2, “Antifungal treatment” (Wisconsin Alumni Research Foundation, priority 2010, dated 2018).

Some results are limits rather than exact numbers.

Take `OC(Cn1cncn1)(Cn1cncn1)c1ccc(F)cc1F` [fluconazole, reference compound]: the “Concentration inhibiting Candida biofilm growth” value in assay [1] is > 1000 µg/mL. Moreover, the growth reduction is 15% with Candida albicans biofilm (FIG. 9A, compound 13 experiment: fluconazole at 62.5 ug/ml, 13 at 0.8 ug/ml) and “approximately 6%” in the assay on Candida albicans biofilm (FIG. 9B, compound 33 experiment: fluconazole at 62.5 ug/ml, 33 at 1.6 ug/ml).
